Assay: molar heat capacity at constant pressure
Conditions: 101.33 kPa

CCC[n+]1ccn(C)c1.[Br-] [1-methyl-3-propylimidazolium bromide]
Conditions | molar heat capacity at constant pressure [J/K/mol]
79.74 K, Crystal, Vacuum adiabatic calorimetry | 92.59
79.94 K, Crystal, Vacuum adiabatic calorimetry | 92.76
81.02 K, Metastable crystal, Small (less than 1 g) adiabatic calorimetry | 99.02
81.27 K, Crystal, Vacuum adiabatic calorimetry | 93.84
81.34 K, Glass, Small (less than 1 g) adiabatic calorimetry | 99.34
82.19 K, Crystal, Vacuum adiabatic calorimetry | 94.55
82.6 K, Crystal, Vacuum adiabatic calorimetry | 94.86
83.24 K, Metastable crystal, Small (less than 1 g) adiabatic calorimetry | 100.47
83.87 K, Glass, Small (less than 1 g) adiabatic calorimetry | 101.14
83.93 K, Crystal, Vacuum adiabatic calorimetry | 95.59
84.2 K, Crystal, Vacuum adiabatic calorimetry | 95.76
85.27 K, Crystal, Vacuum adiabatic calorimetry | 96.54
85.49 K, Metastable crystal, Small (less than 1 g) adiabatic calorimetry | 101.89
86.22 K, Crystal, Vacuum adiabatic calorimetry | 97.26
86.42 K, Glass, Small (less than 1 g) adiabatic calorimetry | 103.04
86.6 K, Crystal, Vacuum adiabatic calorimetry | 97.57
87.75 K, Metastable crystal, Small (less than 1 g) adiabatic calorimetry | 103.44
87.94 K, Crystal, Vacuum adiabatic calorimetry | 98.49
88.23 K, Crystal, Vacuum adiabatic calorimetry | 98.81
89 K, Glass, Small (less than 1 g) adiabatic calorimetry | 105.01
89.27 K, Crystal, Vacuum adiabatic calorimetry | 99.53
90.04 K, Metastable crystal, Small (less than 1 g) adiabatic calorimetry | 104.98
90.61 K, Crystal, Vacuum adiabatic calorimetry | 100.47
91.6 K, Glass, Small (less than 1 g) adiabatic calorimetry | 106.89
91.95 K, Crystal, Vacuum adiabatic calorimetry | 101.38
92.27 K, Crystal, Vacuum adiabatic calorimetry | 101.66
92.34 K, Metastable crystal, Small (less than 1 g) adiabatic calorimetry | 106.48
93.29 K, Crystal, Vacuum adiabatic calorimetry | 102.41
94.22 K, Glass, Small (less than 1 g) adiabatic calorimetry | 108.72
94.29 K, Crystal, Vacuum adiabatic calorimetry | 103.09
94.64 K, Crystal, Vacuum adiabatic calorimetry | 103.36
94.66 K, Metastable crystal, Small (less than 1 g) adiabatic calorimetry | 107.94
95.98 K, Crystal, Vacuum adiabatic calorimetry | 104.28
96.31 K, Crystal, Vacuum adiabatic calorimetry | 104.51
96.86 K, Glass, Small (less than 1 g) adiabatic calorimetry | 110.58
97 K, Metastable crystal, Small (less than 1 g) adiabatic calorimetry | 109.41
97.33 K, Crystal, Vacuum adiabatic calorimetry | 105.24
98.33 K, Crystal, Vacuum adiabatic calorimetry | 105.88
98.67 K, Crystal, Vacuum adiabatic calorimetry | 106.05
99.35 K, Metastable crystal, Small (less than 1 g) adiabatic calorimetry | 110.84
99.51 K, Glass, Small (less than 1 g) adiabatic calorimetry | 112.37
100.03 K, Crystal, Vacuum adiabatic calorimetry | 106.92
100.36 K, Crystal, Vacuum adiabatic calorimetry | 107.18
101.38 K, Crystal, Vacuum adiabatic calorimetry | 107.81
101.71 K, Metastable crystal, Small (less than 1 g) adiabatic calorimetry | 112.27
102.18 K, Glass, Small (less than 1 g) adiabatic calorimetry | 114.14
102.39 K, Crystal, Vacuum adiabatic calorimetry | 108.44
102.74 K, Crystal, Vacuum adiabatic calorimetry | 108.69
104.09 K, Crystal, Vacuum adiabatic calorimetry | 109.46
104.09 K, Metastable crystal, Small (less than 1 g) adiabatic calorimetry | 113.67
104.42 K, Crystal, Vacuum adiabatic calorimetry | 109.77
104.87 K, Glass, Small (less than 1 g) adiabatic calorimetry | 115.91
105.45 K, Crystal, Vacuum adiabatic calorimetry | 110.36
106.45 K, Crystal, Vacuum adiabatic calorimetry | 111.06
106.47 K, Metastable crystal, Small (less than 1 g) adiabatic calorimetry | 115.09
106.81 K, Crystal, Vacuum adiabatic calorimetry | 111.31
107.56 K, Glass, Small (less than 1 g) adiabatic calorimetry | 117.68
108.17 K, Crystal, Vacuum adiabatic calorimetry | 112.14
108.48 K, Crystal, Vacuum adiabatic calorimetry | 112.42
108.88 K, Metastable crystal, Small (less than 1 g) adiabatic calorimetry | 116.5
109.53 K, Crystal, Vacuum adiabatic calorimetry | 112.92
110.28 K, Glass, Small (less than 1 g) adiabatic calorimetry | 119.33
110.52 K, Crystal, Vacuum adiabatic calorimetry | 113.6
110.89 K, Crystal, Vacuum adiabatic calorimetry | 113.71
111.29 K, Metastable crystal, Small (less than 1 g) adiabatic calorimetry | 117.82
112.25 K, Crystal, Vacuum adiabatic calorimetry | 114.5
112.57 K, Crystal, Vacuum adiabatic calorimetry | 114.76
113 K, Glass, Small (less than 1 g) adiabatic calorimetry | 121
113.61 K, Crystal, Vacuum adiabatic calorimetry | 115.32
113.71 K, Metastable crystal, Small (less than 1 g) adiabatic calorimetry | 119.15
114.61 K, Crystal, Vacuum adiabatic calorimetry | 115.9
114.97 K, Crystal, Vacuum adiabatic calorimetry | 116.19
115.74 K, Glass, Small (less than 1 g) adiabatic calorimetry | 122.66
116.15 K, Metastable crystal, Small (less than 1 g) adiabatic calorimetry | 120.5
116.34 K, Crystal, Vacuum adiabatic calorimetry | 116.93
116.65 K, Crystal, Vacuum adiabatic calorimetry | 117.03
117.71 K, Crystal, Vacuum adiabatic calorimetry | 117.69
118.48 K, Glass, Small (less than 1 g) adiabatic calorimetry | 124.31
118.59 K, Metastable crystal, Small (less than 1 g) adiabatic calorimetry | 121.83
118.69 K, Crystal, Vacuum adiabatic calorimetry | 118.24
119.07 K, Crystal, Vacuum adiabatic calorimetry | 118.47
120.44 K, Crystal, Vacuum adiabatic calorimetry | 119.22
120.73 K, Crystal, Vacuum adiabatic calorimetry | 119.36
121.04 K, Metastable crystal, Small (less than 1 g) adiabatic calorimetry | 123.15
121.24 K, Glass, Small (less than 1 g) adiabatic calorimetry | 125.94
121.82 K, Crystal, Vacuum adiabatic calorimetry | 120.01
122.78 K, Crystal, Vacuum adiabatic calorimetry | 120.51
123.19 K, Crystal, Vacuum adiabatic calorimetry | 120.74
123.49 K, Metastable crystal, Small (less than 1 g) adiabatic calorimetry | 124.47
124.01 K, Glass, Small (less than 1 g) adiabatic calorimetry | 127.58
124.56 K, Crystal, Vacuum adiabatic calorimetry | 121.49
124.82 K, Crystal, Vacuum adiabatic calorimetry | 121.64
125.93 K, Crystal, Vacuum adiabatic calorimetry | 122.24
125.95 K, Metastable crystal, Small (less than 1 g) adiabatic calorimetry | 125.81
126.78 K, Glass, Small (less than 1 g) adiabatic calorimetry | 129.18
126.87 K, Crystal, Vacuum adiabatic calorimetry | 122.8
127.3 K, Crystal, Vacuum adiabatic calorimetry | 122.93
128.42 K, Metastable crystal, Small (less than 1 g) adiabatic calorimetry | 127.1
128.67 K, Crystal, Vacuum adiabatic calorimetry | 123.68
128.92 K, Crystal, Vacuum adiabatic calorimetry | 123.91
129.56 K, Glass, Small (less than 1 g) adiabatic calorimetry | 130.84
130.04 K, Crystal, Vacuum adiabatic calorimetry | 124.38
130.89 K, Metastable crystal, Small (less than 1 g) adiabatic calorimetry | 128.38
130.97 K, Crystal, Vacuum adiabatic calorimetry | 125.11
131.41 K, Crystal, Vacuum adiabatic calorimetry | 125.15
132.34 K, Glass, Small (less than 1 g) adiabatic calorimetry | 132.48
132.79 K, Crystal, Vacuum adiabatic calorimetry | 125.91
133.03 K, Crystal, Vacuum adiabatic calorimetry | 126.19
133.37 K, Metastable crystal, Small (less than 1 g) adiabatic calorimetry | 129.68
134.16 K, Crystal, Vacuum adiabatic calorimetry | 126.6
135.08 K, Crystal, Vacuum adiabatic calorimetry | 127.08
135.13 K, Glass, Small (less than 1 g) adiabatic calorimetry | 134.09
135.53 K, Crystal, Vacuum adiabatic calorimetry | 127.32
135.85 K, Metastable crystal, Small (less than 1 g) adiabatic calorimetry | 130.98
136.16 K, Crystal, Vacuum adiabatic calorimetry | 127.66
136.91 K, Crystal, Vacuum adiabatic calorimetry | 128.04
137.14 K, Crystal, Vacuum adiabatic calorimetry | 128.2
137.92 K, Glass, Small (less than 1 g) adiabatic calorimetry | 135.74
138.28 K, Crystal, Vacuum adiabatic calorimetry | 128.82
138.34 K, Metastable crystal, Small (less than 1 g) adiabatic calorimetry | 132.27
138.66 K, Crystal, Vacuum adiabatic calorimetry | 129
139.66 K, Crystal, Vacuum adiabatic calorimetry | 129.53
140.72 K, Crystal, Vacuum adiabatic calorimetry | 130.08
140.72 K, Glass, Small (less than 1 g) adiabatic calorimetry | 137.41
140.83 K, Metastable crystal, Small (less than 1 g) adiabatic calorimetry | 133.54
141.03 K, Crystal, Vacuum adiabatic calorimetry | 130.25
142.4 K, Crystal, Vacuum adiabatic calorimetry | 130.91
142.78 K, Crystal, Vacuum adiabatic calorimetry | 131.16
143.33 K, Metastable crystal, Small (less than 1 g) adiabatic calorimetry | 134.81
143.52 K, Glass, Small (less than 1 g) adiabatic calorimetry | 139.08
143.79 K, Crystal, Vacuum adiabatic calorimetry | 131.72
144.84 K, Crystal, Vacuum adiabatic calorimetry | 132.23
145.17 K, Crystal, Vacuum adiabatic calorimetry | 132.41
145.82 K, Metastable crystal, Small (less than 1 g) adiabatic calorimetry | 136.13
